# Where a SMILES comes first, the peptide text is derived from it. The star is where a group is joined. X1 = CCCCCCCCCCCCCCNC(=O)OC[C@H](C*)OC(=O)NCCCCCCCCCCCCCC; Palmitoyl = CCCCCCCCCCCCCCCC(=O)*
# How the values were obtained:
# [1] = system: CD11b^+ cDCs; experiment: Antigen presentation by CD11b+ cDCs to OT-II CD4+ T cells in vitro; format: cell-based, mice; conditions: CD11b+ cDCs stimulated with 200 nM
# Experimental: Antigen presentation assays were performed as previously described ([38]). Briefly, ovalbumin (OVA) (10 µg/mL; Sigma A7641) pulsed cDCs were stimulated with or without TLR agonists for 4 h. OT-I CD8^+ T cells and OT-II CD4^+ T cells were purified and then labeled by carboxyfluorescein diacetate succinimidyl ester (CFSE) (1 µM; Molecular Probes C34554). CD8^+ cDCs were cocultured with OT-I CD8^+ T cells for 60 h, whereas CD11b^+ cDCs were cocultured with OT-II CD4^+ T cells for 96 h, both in the presence of granulocyte-macrophage colony-stimulating factor (GM-CSF) (20 ng/mL; Peprotech 315-03). Proliferated OT-I or OT-II T cells were defined as diluted CFSE signal analyzed by flow cytometry. The numbers of T cells were counted by AccuCheck counting beads (Molecular Probes PCB100). […] Cells were washed twice with cold medium and analyzed by flow cytometry.
# Figure 5 SUP3 enhanced antigen presentation ability of CD11b^+ conventional dendritic cells (cDCs) and production of antibodies against thymus-dependent (TD) antigens. […] Three days after immunization, division of OT-II CD4^+ T cells from inguinal lymph nodes were analyzed by flow cytometry (B). Absolute numbers of proliferated OT-II CD4^+ T cells were calculated in (C). […] Cells were then thoroughly washed and cocultured with CFSE-stained OT-II CD4^+ T cells for 4 days and analyzed by flow cytometry. […]
# [2] = Antigen deposition (OVA-AF647) in draining lymph nodes; format: in vivo, mice; conditions: OVA-AF647 25 µg per mouse s.c. with 2 nmol per mouse, 24 h; vs OVA alone or OVA with Pam3
# Experimental: Wild-type mice were s.c. injected with OVA-AF647 alone (25 µg per mouse; Molecular Probes O-34784), or mixtures of OVA-AF647 with SUP3 (2 nmol per mouse) or Pam3 (2 nmol per mouse) at groin. Inguinal lymph nodes were isolated 24 h post-injection, and then immune cells were analyzed by flow cytometry.
# Figure 6 SUP3 enhanced antigen deposition in draining lymph nodes. Mice were immunized at groin by s.c. injection of ovalbumin (OVA)-Alexa Fluor 647 (AF647) (25 µg per mouse) with or without SUP3 (2 nmol per mouse) or Pam3 (2 nmol per mouse) for 24 h. Inguinal lymph nodes were isolated, and immune cells were analyzed for levels of AF647 fluorescence by flow cytometry (A). The number of OVA-AF647 positive cells was calculated in (B). Representative data were from two independent experiments with three mice in each group.
smiles,measurement,setting,value
"CCCCCCCCCCCCCCCC(=O)N[C@@H](CSC[C@@H](COC(=O)NCCCCCCCCCCCCCC)OC(=O)NCCCCCCCCCCCCCC)C(=O)NCC(=O)N[C@@H](CCCCN)C(=O)N[C@@H](CCCCN)C(=O)N[C@@H](CCCCN)C(=O)O [SUP3, (2S,5S,8S,14R,18R)-2,5,8-tris(4-aminobutyl)-4,7,10,13,21-pentaoxo-14-palmitamido-18-((tetradecylcarbamoyl)oxy)-20-oxa-16-thia-3,6,9,12,22-pentaazahexatriacontan-1-oic acid] (Palmitoyl-C(X1)GKKK-OH)",OT-II CD4+ T cell proliferation in vitro,[1],enhanced OT-II CD4^+ T cell proliferation
same,"numbers of antigen-containing CD8+ cDCs, CD11b+ cDCs, macrophages, and monocytes in inguinal lymph nodes",[2],increased numbers

# Source: paper PMC5318439, “The Novel Toll-Like Receptor 2 Agonist SUP3 Enhances Antigen Presentation and T Cell Activation by Dendritic Cells” (Frontiers in Immunology, 2017)
